Among the test systems are RXF 393 renal; HCT-15 colon; SK-MEL-28 melanoma; RPMI-8226 leukemia; PC-3 prostate; SNB-19 CNS; SW-620 colon; CAKI-1 renal; SK-MEL-2 melanoma; SF-268 CNS.
What all share (assay): growth of human tumour cells (NCI), 48 h

SMILES strings stand for the structures. Several values for one entry are separate records, joined by “and”; a condition that tells them apart may be missing. Equal values may be shown once.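 Tested at 5 concentrations; 48 h exposure; 96-well plates; endpoints linearly interpolated, else capped at highest concentration. GI50 is the concentration that inhibits growth by half. At the TGI there is no net growth.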

Consider `COc1ccc(S(=O)(=O)Nc2cc(/C=C\c3cc(OC)c(OC)c(OC)c3)ccc2OC)cc1`, for which the GI50 in the assay with RXF 393 renal is 0.0814 µM; with HCT-15 colon it was 0.0623 µM; in the assay with SK-MEL-28 melanoma it was 0.143 µM; in the assay on RPMI-8226 leukemia, 0.319 µM; in the assay on PC-3 prostate, 0.124 µM; in the assay on SNB-19 CNS it was 0.352 µM. Further, the GI50 with SW-620 colon is 0.0785 µM; with CAKI-1 renal, 0.0515 µM; with SK-MEL-2 melanoma, 0.0803 µM; in the assay with SF-268 CNS, 0.401 µM. For the same molecule, the TGI with RXF 393 renal was above 100 µM; in the assay on HCT-15 colon, above 100 µM; in the assay on SK-MEL-28 melanoma, above 100 µM; with RPMI-8226 leukemia, 3.83 µM; in the assay on PC-3 prostate it was above 100 µM; in the assay with SNB-19 CNS, above 100 µM. In addition, the TGI was above 100 µM in the assay on SW-620 colon, 20.6 µM in the assay on CAKI-1 renal, 93 µM in the assay with SK-MEL-2 melanoma and above 100 µM in the assay on SF-268 CNS.
As to `COc1cc(Cl)cc(-c2nn(-c3cccc(NC(=O)Nc4cc(C(F)(F)F)cc(C(F)(F)F)c4)c3)cc2-c2ccncc2)c1`, the GI50 in the assay on RXF 393 renal was 1.38 µM; with HCT-15 colon, 0.383 µM; in the assay with SK-MEL-28 melanoma, 1.07 µM; in the assay with RPMI-8226 leukemia, 0.288 µM; in the assay with PC-3 prostate, 0.311 µM; in the assay on SNB-19 CNS it was 0.612 µM. Besides, the GI50 in the assay on SW-620 colon was 0.422 µM; with CAKI-1 renal it was 0.426 µM; with SK-MEL-2 melanoma, 0.454 µM; in the assay with SF-268 CNS it was 0.645 µM. Moreover, the TGI with RXF 393 renal was 4.09 µM; in the assay on HCT-15 colon it was 2.74 µM; in the assay on SK-MEL-28 melanoma, 4.83 µM; in the assay with RPMI-8226 leukemia, 1.03 µM; with PC-3 prostate it was 1.62 µM; in the assay with SNB-19 CNS it was 12.7 µM. Moreover, the TGI with SW-620 colon came out at 2.72 µM; in the assay with CAKI-1 renal, 4.4 µM; in the assay with SK-MEL-2 melanoma, 1.91 µM; in the assay on SF-268 CNS, 4.35 µM.
As for `CC(=O)OCC(=O)[C@@]12OC(C)(C)O[C@@H]1C[C@H]1[C@@H]3CC=C4C[C@@H](O)CC[C@]4(C)[C@H]3CC[C@@]12C`, the TGI was 61.4 µM with RXF 393 renal; above 100 µM in the assay with HCT-15 colon; above 100 µM with SK-MEL-28 melanoma; above 100 µM with RPMI-8226 leukemia; above 100 µM in the assay on PC-3 prostate; above 100 µM in the assay on SNB-19 CNS. Moreover, the TGI with SW-620 colon, with CAKI-1 renal, with SK-MEL-2 melanoma and in the assay on SF-268 CNS was above 100 µM in each case.
Consider `CC1(O)CC(c2nc(-c3ccc4ccc(-c5ccccc5)nc4c3)c3c(N)nccn23)C1` (stereo not given), for which the GI50 with RXF 393 renal is 3.71 µM and 4.96 µM; with HCT-15 colon it was 4.52 µM and 3.68 µM; in the assay with SK-MEL-28 melanoma it was 12 µM and > 10 µM; in the assay with RPMI-8226 leukemia, 6.55 µM and 3.98 µM; in the assay on PC-3 prostate it was 12.7 µM and > 10 µM; in the assay with SNB-19 CNS it was 19.8 µM and > 10 µM. Also, the GI50 was 4.87 µM and 2.36 µM in the assay on SW-620 colon; 4.58 µM and 2.16 µM in the assay with CAKI-1 renal; 10.1 µM and 6.63 µM in the assay on SK-MEL-2 melanoma; 12.9 µM and > 10 µM with SF-268 CNS. Further, the TGI is 13.7 µM and > 10 µM in the assay on RXF 393 renal; above 79.6 µM with HCT-15 colon; 44.3 µM and > 10 µM in the assay with SK-MEL-28 melanoma; 31.9 µM and > 10 µM with RPMI-8226 leukemia; above 100 µM with PC-3 prostate; above 100 µM in the assay on SNB-19 CNS. The TGI with SW-620 colon was 34.8 µM and > 10 µM; in the assay with CAKI-1 renal, above 100 µM; in the assay with SK-MEL-2 melanoma it was 60.6 µM and > 10 µM; with SF-268 CNS, 55.3 µM and > 10 µM.
Consider `COc1ccccc1N1CCN(CCc2c[nH]c3cc4c(cc23)OCO4)CC1`, for which the GI50 with RXF 393 renal is 17.9 µM; with HCT-15 colon, 29.6 µM; in the assay with SK-MEL-28 melanoma, 43.9 µM; in the assay on RPMI-8226 leukemia, 25.1 µM; in the assay with PC-3 prostate it was 20 µM; with SNB-19 CNS, 26 µM. The GI50 with SW-620 colon is 22 µM; in the assay on CAKI-1 renal, 18.5 µM; with SK-MEL-2 melanoma, 21.3 µM; with SF-268 CNS, 35.6 µM. In addition, the TGI in the assay with RXF 393 renal was 92.9 µM; in the assay with HCT-15 colon it was above 100 µM; in the assay on SK-MEL-28 melanoma it was above 100 µM; with RPMI-8226 leukemia, above 100 µM; with PC-3 prostate, above 100 µM; with SNB-19 CNS, above 100 µM. The TGI in the assay with SW-620 colon is above 100 µM; in the assay on CAKI-1 renal, 60.8 µM; in the assay on SK-MEL-2 melanoma it was 56.3 µM; in the assay on SF-268 CNS, above 100 µM.
Regarding `O=C(Nc1ccc2[nH]c(=S)sc2c1)Nc1ccccc1F`, the GI50 with RXF 393 renal is 54.5 µM; in the assay on HCT-15 colon, 20.4 µM; in the assay with SK-MEL-28 melanoma, 42.2 µM; in the assay with RPMI-8226 leukemia, 18 µM; in the assay on PC-3 prostate, 21.5 µM; in the assay on SNB-19 CNS, 41.8 µM. Also, the GI50 in the assay on SW-620 colon is 43.1 µM; in the assay on CAKI-1 renal it was 2.71 µM; with SK-MEL-2 melanoma, 26.7 µM; in the assay on SF-268 CNS, 38.2 µM. Also, the TGI in the assay on RXF 393 renal, in the assay on HCT-15 colon, in the assay with SK-MEL-28 melanoma, in the assay on RPMI-8226 leukemia, with PC-3 prostate and in the assay with SNB-19 CNS was above 100 µM throughout. Besides, the TGI was above 100 µM in the assay on SW-620 colon, 14.6 µM in the assay with CAKI-1 renal, above 100 µM with SK-MEL-2 melanoma and above 100 µM in the assay on SF-268 CNS.
As to `Cc1ccc2nc(-c3ccccc3)c(N=O)n2c1`, the TGI in the assay with RXF 393 renal, in the assay on HCT-15 colon, with SK-MEL-28 melanoma, with RPMI-8226 leukemia, with PC-3 prostate and in the assay with SNB-19 CNS was above 100 µM each time. In addition, the TGI in the assay with SW-620 colon, with CAKI-1 renal, in the assay on SK-MEL-2 melanoma and in the assay on SF-268 CNS was above 100 µM throughout.
As to `COc1cc(/C=C/C(=O)c2c(C)nc3ccccc3c2/C=C/c2ccc(C)cc2)cc(OC)c1OC`, the GI50 in the assay with RXF 393 renal was 1.63 µM; in the assay on HCT-15 colon it was 1.53 µM; in the assay with SK-MEL-28 melanoma it was 2.02 µM; with RPMI-8226 leukemia, 2.56 µM; in the assay with PC-3 prostate it was 2.59 µM; with SNB-19 CNS, 1.69 µM. Besides, the GI50 in the assay with SW-620 colon is 3.09 µM; in the assay with CAKI-1 renal it was 1.4 µM; in the assay on SK-MEL-2 melanoma it was 2.11 µM; in the assay with SF-268 CNS, 2.21 µM. The TGI came out at 3.13 µM in the assay with RXF 393 renal; 3.62 µM with HCT-15 colon; 3.91 µM with SK-MEL-28 melanoma; 7.87 µM with RPMI-8226 leukemia; 8.76 µM in the assay on PC-3 prostate; 3.14 µM in the assay with SNB-19 CNS. Further, the TGI with SW-620 colon is above 100 µM; with CAKI-1 renal, 3.01 µM; in the assay with SK-MEL-2 melanoma, 5.05 µM; in the assay with SF-268 CNS, 6.42 µM.

The values are drawn from PubChem BioAssay (NCI).
